Several values for one entry are separate records, joined by “and”; a condition that tells them apart may be missing. Equal values may be shown once. ± gives the expanded uncertainty stated by the source.
Conditions: Liquid, Hot wire method

FC(F)CC(F)(F)F [1,1,1,3,3-pentafluoropropane]
Conditions	thermal conductivity
173.21 K, 150 kPa	0.1235 ± 0.0016 W/m/K and 0.1232 ± 0.0016 W/m/K
173.3 K, 132 kPa	0.1239 ± 0.0016 W/m/K
173.3 K, 133 kPa	0.1234 ± 0.0016 W/m/K
173.3 K, 148 kPa	0.1237 ± 0.0016 W/m/K and 0.1231 ± 0.0016 W/m/K
173.41 K, 150 kPa	0.1234 ± 0.0016 W/m/K
173.51 K, 135 kPa	0.1234 ± 0.0016 W/m/K and 0.1231 ± 0.0016 W/m/K
173.51 K, 148 kPa	0.1235 ± 0.0016 W/m/K and 0.1238 ± 0.0016 W/m/K
173.66 K, 150 kPa	0.1231 ± 0.0016 W/m/K
173.75 K, 136 kPa	0.1237 ± 0.0016 W/m/K
173.75 K, 137 kPa	0.1236 ± 0.0016 W/m/K
173.75 K, 148 kPa	0.1236 ± 0.0016 W/m/K
173.91 K, 150 kPa	0.1233 ± 0.0016 W/m/K and 0.1231 ± 0.0016 W/m/K
174.01 K, 138 kPa	0.1235 ± 0.0016 W/m/K
174.01 K, 140 kPa	0.1235 ± 0.0016 W/m/K
174.01 K, 148 kPa	0.1235 ± 0.0016 W/m/K
174.01 K, 149 kPa	0.1235 ± 0.0016 W/m/K
174.21 K, 150 kPa	0.1234 ± 0.0016 W/m/K
174.29 K, 140 kPa	0.1233 ± 0.0016 W/m/K
174.29 K, 141 kPa	0.1231 ± 0.0016 W/m/K
174.3 K, 149 kPa	0.1239 ± 0.0016 W/m/K and 0.1236 ± 0.0016 W/m/K
181.78 K, 159 kPa	0.1224 ± 0.0015 W/m/K and 0.1223 ± 0.0015 W/m/K
182.06 K, 158 kPa	0.1227 ± 0.0016 W/m/K and 0.1222 ± 0.0015 W/m/K
182.37 K, 158 kPa	0.1222 ± 0.0015 W/m/K and 0.1225 ± 0.0015 W/m/K
182.5 K, 266 kPa	0.1225 ± 0.0015 W/m/K
182.5 K, 269 kPa	0.1226 ± 0.0015 W/m/K
182.51 K, 5857 kPa	0.1236 ± 0.0016 W/m/K
182.51 K, 70521 kPa	0.1336 ± 0.0017 W/m/K
182.52 K, 5874 kPa	0.1237 ± 0.0016 W/m/K
182.52 K, 12298 kPa	0.1248 ± 0.0016 W/m/K
182.52 K, 12334 kPa	0.1252 ± 0.0016 W/m/K
182.53 K, 18829 kPa	0.126 ± 0.0016 W/m/K
182.53 K, 18849 kPa	0.126 ± 0.0016 W/m/K
182.53 K, 32455 kPa	0.1283 ± 0.0016 W/m/K
182.54 K, 25387 kPa	0.1271 ± 0.0016 W/m/K
182.54 K, 25434 kPa	0.1275 ± 0.0016 W/m/K
182.54 K, 63262 kPa	0.1331 ± 0.0017 W/m/K and 0.133 ± 0.0017 W/m/K
182.55 K, 32519 kPa	0.128 ± 0.0016 W/m/K
182.6 K, 54974 kPa	0.1317 ± 0.0017 W/m/K
182.6 K, 54979 kPa	0.1314 ± 0.0017 W/m/K
182.64 K, 47632 kPa	0.1303 ± 0.0016 W/m/K
182.64 K, 47638 kPa	0.1309 ± 0.0017 W/m/K
182.68 K, 39974 kPa	0.1293 ± 0.0016 W/m/K
182.68 K, 39979 kPa	0.1294 ± 0.0016 W/m/K
182.7 K, 158 kPa	0.1222 ± 0.0015 W/m/K
182.71 K, 158 kPa	0.1222 ± 0.0015 W/m/K
182.81 K, 266 kPa	0.1225 ± 0.0015 W/m/K
182.81 K, 278 kPa	0.1224 ± 0.0015 W/m/K
182.81 K, 5870 kPa	0.1236 ± 0.0016 W/m/K
182.81 K, 5874 kPa	0.1234 ± 0.0016 W/m/K
182.81 K, 70507 kPa	0.134 ± 0.0017 W/m/K
182.81 K, 70514 kPa	0.134 ± 0.0017 W/m/K
182.82 K, 12333 kPa	0.1247 ± 0.0016 W/m/K
182.83 K, 18827 kPa	0.1259 ± 0.0016 W/m/K
182.83 K, 18835 kPa	0.1259 ± 0.0016 W/m/K
182.83 K, 25436 kPa	0.1272 ± 0.0016 W/m/K
182.84 K, 25420 kPa	0.127 ± 0.0016 W/m/K
182.84 K, 32528 kPa	0.1281 ± 0.0016 W/m/K
182.84 K, 32589 kPa	0.128 ± 0.0016 W/m/K
182.85 K, 63255 kPa	0.1331 ± 0.0017 W/m/K
182.91 K, 54970 kPa	0.1314 ± 0.0017 W/m/K
182.92 K, 54983 kPa	0.1316 ± 0.0017 W/m/K
182.95 K, 47626 kPa	0.1304 ± 0.0016 W/m/K
182.95 K, 47631 kPa	0.1305 ± 0.0016 W/m/K
182.99 K, 39966 kPa	0.129 ± 0.0016 W/m/K
182.99 K, 39976 kPa	0.1291 ± 0.0016 W/m/K
183.06 K, 158 kPa	0.1223 ± 0.0015 W/m/K and 0.1222 ± 0.0015 W/m/K
183.13 K, 269 kPa	0.1224 ± 0.0015 W/m/K
183.14 K, 277 kPa	0.1224 ± 0.0015 W/m/K
183.14 K, 5876 kPa	0.1234 ± 0.0016 W/m/K

Source: the NIST ThermoML archive (doi:10.1021/acs.jced.6b00350)
